Results reported in ChEMBL document CHEMBL1201862, “PubChem BioAssay data set” (2004).
Values joined by “and” are separate entries in the source; they are usually repeats but may differ in a detail not shown here. Equal entries are not always repeated.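 Compound exposure: 48 hours, 5 concentrations, 96-well plates. GI50 marks 50% less growth.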 Active and inactive are the calls of the source. Rule as the data show it: active = GI50 up to about 1.1 µM and inactive = higher.

Assays:
Experiment in all cases: DTP human tumour cell line panel, 48 h
UACC-62 = system: UACC-62
CAKI-1 = system: CAKI-1
HT-29 = system: HT-29
SK-OV-3 = system: SK-OV-3
HOP-62 = system: HOP-62
M14 = system: M14
SN12C = system: SN12C
SF-268 = system: SF-268
UO-31 = system: UO-31
SW-620 = system: SW-620
SNB-19 = system: SNB-19
OVCAR-8 = system: OVCAR-8
DU-145 = system: DU-145
RPMI-8226 = system: RPMI-8226
HCC 2998 = system: HCC 2998
SK-MEL-5 = system: SK-MEL-5
786-0 = system: 786-0
PC-3 = system: PC-3
CCRF-CEM = system: CCRF-CEM
RXF 393 = system: RXF 393

Compound	GI50 (UACC-62)	GI50 (CAKI-1)	GI50 (HT-29)	GI50 (SK-OV-3)	GI50 (HOP-62)	GI50 (M14)	GI50 (SN12C)	GI50 (SF-268)	GI50 (UO-31)	GI50 (SW-620)	GI50 (SNB-19)	GI50 (OVCAR-8)	GI50 (DU-145)	GI50 (RPMI-8226)	GI50 (HCC 2998)	GI50 (SK-MEL-5)	GI50 (786-0)	GI50 (PC-3)	GI50 (CCRF-CEM)	GI50 (RXF 393)
CSC1NC(c2ccc(Cl)cc2)=C(C#N)C(=O)N1C1OCC(OC(C)=O)C(OC(C)=O)C1OC(C)=O (stereo not drawn)	> 100 µM (inactive)	> 100 µM (inactive)	> 100 µM (inactive)	> 100 µM (inactive)	> 100 µM (inactive)	> 100 µM (inactive)	45.1 µM (inactive)	> 100 µM (inactive)	53.3 µM (inactive)	> 100 µM (inactive)	> 100 µM (inactive)	> 100 µM (inactive)	> 100 µM (inactive)	> 100 µM (inactive)	> 100 µM (inactive)	81.1 µM (inactive)	> 100 µM (inactive)	> 100 µM (inactive)		
O=C1C(=O)N(c2ccc(Cl)cc2Cl)C(=O)C(=O)C1c1nc2ccccc2s1	78.3 µM (inactive)	64.1 µM (inactive)	> 82.2 µM (inactive)	> 100 µM (inactive)	> 100 µM (inactive)	> 100 µM (inactive)	> 100 µM (inactive)	> 56.4 µM (inactive)	> 77.4 µM (inactive)	> 78.3 µM (inactive)	> 100 µM (inactive)	> 100 µM (inactive)		48 µM (inactive)	> 100 µM (inactive)	65.2 µM (inactive)	> 100 µM (inactive)		25 µM (inactive)	> 100 µM (inactive)
CC1C(c2ccc(Cl)cc2)c2cc3c(cc2OC1N1CCOCC1)OCO3 (stereo not drawn)	74 µM (inactive)	31.8 µM (inactive)	49.5 µM (inactive)		79.4 µM (inactive)	85.3 µM (inactive)	> 100 µM (inactive)	> 100 µM (inactive)	54.3 µM (inactive)	> 100 µM (inactive)	80.9 µM (inactive)	> 100 µM (inactive)	> 100 µM (inactive)	34.1 µM (inactive)	> 100 µM (inactive)	51.3 µM (inactive)	56.8 µM (inactive)	67.3 µM (inactive)	92.9 µM (inactive)	
CCOC(=O)C1=C(c2ccccc2)N(C)c2ccccc2S1	19 µM (inactive)	31 µM (inactive)	17.4 µM (inactive)	92.5 µM (inactive)	36.4 µM (inactive)	34.5 µM (inactive)	23.9 µM (inactive)	29.4 µM (inactive)	22.4 µM (inactive)	44.4 µM (inactive)	69.5 µM (inactive)	33.6 µM (inactive)	44.2 µM (inactive)	17 µM (inactive)		16.1 µM (inactive)	31.8 µM (inactive)	29.9 µM (inactive)	31 µM (inactive)	
N#Cc1c(C(N)=O)ncn1Cc1ccccc1	> 100 µM (inactive)	> 100 µM (inactive)	> 100 µM (inactive)	> 100 µM (inactive)	> 100 µM (inactive)	> 100 µM (inactive)	> 100 µM (inactive)	> 100 µM (inactive)	> 100 µM (inactive)	> 100 µM (inactive)	> 100 µM (inactive)	> 100 µM (inactive)		> 100 µM (inactive)	> 100 µM (inactive)	> 100 µM (inactive)	> 100 µM (inactive)		> 100 µM (inactive)	> 100 µM (inactive)
CCOC(=O)CCC(NC(=O)c1ccc(/N=C/c2nc3ccccc3nc2-c2ccccc2)cc1)C(=O)OCC (stereo not drawn)	> 100 µM (inactive)	> 100 µM (inactive)	> 100 µM (inactive)	> 100 µM (inactive)	> 100 µM (inactive)	82 µM (inactive)	79.1 µM (inactive)	> 100 µM (inactive)	> 100 µM (inactive)	> 100 µM (inactive)	> 100 µM (inactive)	13.9 µM (inactive)		> 100 µM (inactive)	> 100 µM (inactive)	> 100 µM (inactive)	> 100 µM (inactive)		> 100 µM (inactive)	64.9 µM (inactive)
C[n+]1c2ccccc2c(/C=N\NS(=O)(=O)c2ccc(Cl)cc2)c2ccccc21	37.8 µM (inactive)	29.7 µM (inactive)	34 µM (inactive)	> 100 µM (inactive)	> 100 µM (inactive)	56.4 µM (inactive)	56.8 µM (inactive)	69.2 µM (inactive)	27.3 µM (inactive)	39.5 µM (inactive)	59.2 µM (inactive)	40.3 µM (inactive)		42.6 µM (inactive)	> 100 µM (inactive)	42 µM (inactive)	51.9 µM (inactive)		15.1 µM (inactive)	57.3 µM (inactive)
C=C1C(=O)OC2CC1C(OC(C)=O)C/C(C)=C/CC/C(C)=C\CCC2(C)O (stereo not drawn)		4.34 µM (inactive) and 2.96 µM (inactive)		19.5 µM (inactive) and 24.5 µM (inactive)	15.3 µM (inactive) and 13.6 µM (inactive)	5.83 µM (inactive) and 6.1 µM (inactive)	4.55 µM (inactive) and 3.09 µM (inactive)	5.24 µM (inactive) and 5.45 µM (inactive)	3.24 µM (inactive) and 6.12 µM (inactive)	2.64 µM (inactive) and 3.4 µM (inactive)	17.3 µM (inactive) and 15.1 µM (inactive)	3.36 µM (inactive) and 3.17 µM (inactive)	3.95 µM (inactive) and 5.77 µM (inactive)	1.9 µM (inactive) and 1.82 µM (inactive)	7.69 µM (inactive) and 4.74 µM (inactive)		3.24 µM (inactive) and 2.6 µM (inactive)			3.67 µM (inactive)
O=C1CCCc2ccc3c(c21)CC1(Cc2ccccc2C1)C3	26.1 µM (inactive)		17.5 µM (inactive)	53.5 µM (inactive)	39.1 µM (inactive)	34.6 µM (inactive)	26.1 µM (inactive)		50.1 µM (inactive)			34.2 µM (inactive)		16.9 µM (inactive)	41.5 µM (inactive)	18.5 µM (inactive)	29.1 µM (inactive)	98.4 µM (inactive)		33.3 µM (inactive)
O=c1c([Se]c2coc3ccccc3c2=O)coc2ccccc12	17.1 µM (inactive)	20 µM (inactive)	17.1 µM (inactive)	16.2 µM (inactive)	4.89 µM (inactive)	14.9 µM (inactive)	15 µM (inactive)	19.5 µM (inactive)	13.5 µM (inactive)	19 µM (inactive)	14 µM (inactive)	12.7 µM (inactive)		22.8 µM (inactive)	17.7 µM (inactive)	16.3 µM (inactive)	18.5 µM (inactive)		18.1 µM (inactive)	15.9 µM (inactive)
CCOP1(=O)C=C(C)C(=C(Cl)Cl)C(C)=C1 (stereo not drawn)	6.46 µM (inactive)	11.6 µM (inactive)	4.72 µM (inactive)	35.1 µM (inactive)	15.4 µM (inactive)	8.32 µM (inactive)	15 µM (inactive)	9.57 µM (inactive)	13.9 µM (inactive)	7.45 µM (inactive)	20.1 µM (inactive)	20.7 µM (inactive)		3.29 µM (inactive)	14.6 µM (inactive)	5.9 µM (inactive)	23.7 µM (inactive)		10.2 µM (inactive)	15.6 µM (inactive)
CN(Cc1ccccc1)c1cc(=O)n(C)c(=O)[nH]1	> 100 µM (inactive)	> 100 µM (inactive)	> 100 µM (inactive)	> 100 µM (inactive)		> 100 µM (inactive)	> 100 µM (inactive)	> 100 µM (inactive)	> 100 µM (inactive)	> 100 µM (inactive)	> 100 µM (inactive)	> 100 µM (inactive)	> 100 µM (inactive)	> 100 µM (inactive)	> 100 µM (inactive)	> 100 µM (inactive)	> 100 µM (inactive)	> 100 µM (inactive)	62.2 µM (inactive)	
CC(C)CCCC(C)[C@H]1CCC2[C@@H]3CCC4Nc5c(cnn5-c5ccccc5)C[C@]4(C)C3CC[C@@]21C (stereo partly drawn)	8.05 µM (inactive)	5.11 µM (inactive)	10.6 µM (inactive)	48.5 µM (inactive)	14.3 µM (inactive)	39.8 µM (inactive)	83 µM (inactive)	85.3 µM (inactive)	15 µM (inactive)	21.5 µM (inactive)	18.2 µM (inactive)	61 µM (inactive)		3.61 µM (inactive)	15.8 µM (inactive)	85.1 µM (inactive)	15.7 µM (inactive)		7.45 µM (inactive)	2.78 µM (inactive)
CC1=C2C3OC(=O)C(C)C3C(O)C[C@@]2(C)C(=O)CC1 (stereo partly drawn)	> 100 µM (inactive)	> 100 µM (inactive)	> 100 µM (inactive)	> 100 µM (inactive)	> 100 µM (inactive)	> 100 µM (inactive)	> 100 µM (inactive)	> 100 µM (inactive)	> 100 µM (inactive)	> 100 µM (inactive)	> 100 µM (inactive)	> 100 µM (inactive)		> 100 µM (inactive)	> 100 µM (inactive)	> 100 µM (inactive)	> 100 µM (inactive)		> 100 µM (inactive)	> 100 µM (inactive)
CCC(=O)OC1CCn2c1nc1c2C(=O)C(C)=C(NC(C)=O)C1=O (stereo not drawn)	1.93 µM (inactive)	1.92 µM (inactive)	1.69 µM (inactive)	3.87 µM (inactive)	11.7 µM (inactive)	1.89 µM (inactive)	1.79 µM (inactive)	1.74 µM (inactive)	2.22 µM (inactive)	1.49 µM (inactive)	2.9 µM (inactive)	0.641 µM (active)		1.93 µM (inactive)	2.31 µM (inactive)	1.83 µM (inactive)	3.48 µM (inactive)		0.736 µM (active)	1.73 µM (inactive)
